Laboratory results taken from the NIST ThermoML archive (doi:10.1021/acs.jced.8b00662).

Experiment: xn = mol fraction of the nth substance listed
Settings: 100 kPa, Liquid; for viscosity: Falling or rolling sphere viscometry; for mass density: Vibrating tube method

CC(C)C1CCCCC1 [(1-methylethyl)cyclohexane] + c1ccc2c(c1)CCCC2
Settings | mass density [kg/m3] | viscosity [mPa·s]
293.15 K, x2 = 0 | 802.14 | 1.093
293.15 K, x2 = 0.0995 | 816.67 | 1.129
293.15 K, x2 = 0.1995 | 831.75 | 1.195
293.15 K, x2 = 0.299 | 847.23 | 1.258
293.15 K, x2 = 0.4004 | 863.44 | 1.334
293.15 K, x2 = 0.5006 | 879.87 | 1.436
293.15 K, x2 = 0.5995 | 896.5 | 1.543
293.15 K, x2 = 0.7015 | 914.1 | 1.671
293.15 K, x2 = 0.7991 | 931.39 | 1.823
293.15 K, x2 = 0.9006 | 949.99 | 2.008
298.15 K, x2 = 0 | 798.24 | 1.016
298.15 K, x2 = 0.0995 | 812.77 | 1.053
298.15 K, x2 = 0.1995 | 827.85 | 1.108
298.15 K, x2 = 0.299 | 843.32 | 1.165
298.15 K, x2 = 0.4004 | 859.53 | 1.233
298.15 K, x2 = 0.5006 | 875.96 | 1.324
298.15 K, x2 = 0.5995 | 892.57 | 1.416
298.15 K, x2 = 0.7015 | 910.16 | 1.531
298.15 K, x2 = 0.7991 | 927.44 | 1.662
298.15 K, x2 = 0.9006 | 946.04 | 1.824
303.15 K, x2 = 0 | 794.34 | 0.947
303.15 K, x2 = 0.0995 | 808.86 | 0.98
303.15 K, x2 = 0.1995 | 823.93 | 1.03
303.15 K, x2 = 0.299 | 839.4 | 1.08
303.15 K, x2 = 0.4004 | 855.61 | 1.143
303.15 K, x2 = 0.5006 | 872.03 | 1.225
303.15 K, x2 = 0.5995 | 888.63 | 1.305
303.15 K, x2 = 0.7015 | 906.22 | 1.407
303.15 K, x2 = 0.7991 | 923.49 | 1.521
303.15 K, x2 = 0.9006 | 942.08 | 1.667
308.15 K, x2 = 0 | 790.43 | 0.886
308.15 K, x2 = 0.0995 | 804.95 | 0.916
308.15 K, x2 = 0.1995 | 820.02 | 0.961
308.15 K, x2 = 0.299 | 835.48 | 1.007
308.15 K, x2 = 0.4004 | 851.68 | 1.064
308.15 K, x2 = 0.5006 | 868.1 | 1.137
308.15 K, x2 = 0.5995 | 884.69 | 1.208
308.15 K, x2 = 0.7015 | 902.28 | 1.3
308.15 K, x2 = 0.7991 | 919.54 | 1.404
308.15 K, x2 = 0.9006 | 938.12 | 1.532
313.15 K, x2 = 0 | 786.51 | 0.831
313.15 K, x2 = 0.0995 | 801.03 | 0.859
313.15 K, x2 = 0.1995 | 816.1 | 0.9
313.15 K, x2 = 0.299 | 831.55 | 0.942
313.15 K, x2 = 0.4004 | 847.75 | 0.994
313.15 K, x2 = 0.5006 | 864.17 | 1.06
313.15 K, x2 = 0.5995 | 880.76 | 1.124
313.15 K, x2 = 0.7015 | 898.34 | 1.207
313.15 K, x2 = 0.7991 | 915.59 | 1.3
313.15 K, x2 = 0.9006 | 934.17 | 1.413
318.15 K, x2 = 0 | 782.59 | 0.782
318.15 K, x2 = 0.0995 | 797.11 | 0.798
318.15 K, x2 = 0.1995 | 812.17 | 0.837
318.15 K, x2 = 0.299 | 827.63 | 0.876
318.15 K, x2 = 0.4004 | 843.82 | 0.925
318.15 K, x2 = 0.5006 | 860.23 | 0.986
318.15 K, x2 = 0.5995 | 876.81 | 1.045
318.15 K, x2 = 0.7015 | 894.39 | 1.121
318.15 K, x2 = 0.7991 | 911.63 | 1.206
318.15 K, x2 = 0.9006 | 930.21 | 1.309
323.15 K, x2 = 0 | 778.66 | 0.738
323.15 K, x2 = 0.0995 | 793.18 | 0.761
323.15 K, x2 = 0.1995 | 808.24 | 0.795
323.15 K, x2 = 0.299 | 823.7 | 0.831
323.15 K, x2 = 0.4004 | 839.88 | 0.875
323.15 K, x2 = 0.5006 | 856.3 | 0.93
323.15 K, x2 = 0.5995 | 872.87 | 0.982
323.15 K, x2 = 0.7015 | 890.45 | 1.05
323.15 K, x2 = 0.7991 | 907.69 | 1.123
323.15 K, x2 = 0.9006 | 926.26 | 1.219
328.15 K, x2 = 0 | 774.72 | 0.698
328.15 K, x2 = 0.0995 | 789.24 | 0.72
328.15 K, x2 = 0.1995 | 804.3 | 0.751
328.15 K, x2 = 0.299 | 819.76 | 0.784
328.15 K, x2 = 0.4004 | 835.94 | 0.825
328.15 K, x2 = 0.5006 | 852.35 | 0.875
328.15 K, x2 = 0.5995 | 868.92 | 0.922
328.15 K, x2 = 0.7015 | 886.5 | 0.985
328.15 K, x2 = 0.7991 | 903.74 | 1.051
328.15 K, x2 = 0.9006 | 922.3 | 1.137
333.15 K, x2 = 0 | 770.77 | 0.661
333.15 K, x2 = 0.0995 | 785.29 | 0.681
333.15 K, x2 = 0.1995 | 800.35 | 0.711
333.15 K, x2 = 0.299 | 815.81 | 0.741
333.15 K, x2 = 0.4004 | 831.99 | 0.779
333.15 K, x2 = 0.5006 | 848.4 | 0.825
333.15 K, x2 = 0.5995 | 864.97 | 0.869
333.15 K, x2 = 0.7015 | 882.54 | 0.926
333.15 K, x2 = 0.7991 | 899.78 | 0.986
333.15 K, x2 = 0.9006 | 918.35 | 1.065
338.15 K, x2 = 0 | 766.81 | 0.628
338.15 K, x2 = 0.0995 | 781.34 | 0.647
338.15 K, x2 = 0.1995 | 796.4 | 0.674
338.15 K, x2 = 0.299 | 811.85 | 0.703
338.15 K, x2 = 0.4004 | 828.03 | 0.737
338.15 K, x2 = 0.5006 | 844.44 | 0.78
338.15 K, x2 = 0.5995 | 861.01 | 0.82
338.15 K, x2 = 0.7015 | 878.57 | 0.873
338.15 K, x2 = 0.7991 | 895.81 | 0.928
338.15 K, x2 = 0.9006 | 914.37 | 0.999
343.15 K, x2 = 0 | 762.84 | 0.598
343.15 K, x2 = 0.0995 | 777.38 | 0.616
343.15 K, x2 = 0.1995 | 792.44 | 0.641
343.15 K, x2 = 0.299 | 807.89 | 0.668
343.15 K, x2 = 0.4004 | 824.07 | 0.7
343.15 K, x2 = 0.5006 | 840.47 | 0.74
343.15 K, x2 = 0.5995 | 857.04 | 0.776
343.15 K, x2 = 0.7015 | 874.6 | 0.825
343.15 K, x2 = 0.7991 | 891.84 | 0.875
343.15 K, x2 = 0.9006 | 910.39 | 0.942
